Data as given in US9839701B2, “Aromatic amino acid derivative and positron emission topography (PET) probe using the same” (OSAKA UNIVERSITY, priority 2013, dated 2017).

Assays:
[1] = molecular target: T1, human LAT1 (Homo sapiens, UniProt Q01650); assay: Inhibition of amino acid uptake in human LAT1 stably expressing cell line; assay type: cell-based
T1 construct: expressed in transfected cells
Excerpt: A human LAT1 expression vector or a human LAT2 expression vector was transfected using Lipofectamine (registered trademark) 2000 (Invitrogen) into a human embryonic kidney cell line HEK293. G418-resistant HEK293 clones were selected, and among them, a clone showing human LAT1-specific amino acid uptake and a clone showing human LAT2-specific amino acid uptake were selected and established as a human LAT1 stably expressing cell line and a human LAT2 stably expressing cell line, respectively (Khunweeraphong et al. J Pharmacol Sci. 2012 Aug. 18; 119(4): 368-80. Epub 2012 Jul. 31).
The human LAT1 stably expressing cell line and the human LAT2 stably expressing cell line were seeded at 1.2×10^5 cells/well on separate collagen-coated 24-well plates, and after 48 hours, the cells were washed 3 times with an uptake buffer (Na^2+-free Hank's balanced salt solution (HBSS), pH 7.4) prewarmed at 37° C. Compound 10a, compound 10b or a positive control FAMT (fluoro-α-methyltyrosine) was added at 100 μM, and incubation was performed at 37° C. for 3 minutes. Cells not treated with any of these compounds were used as a negative control. After the incubation, 1 μM of [^14C]L-leucine or [^14C]alanine was added to the wells, [^14C]L-leucine or [^14C]alanine uptake was allowed to proceed for 1 minute, and the cells were washed 3 times with an ice-cold uptake buffer. Subsequently, 500 μL of 0.1 M NaOH was added to each well for cell lysis, 20 μL of the lysate was used for the measurement of the protein concentration, and the remaining lysate was used for the measurement of the intracellular radioactivity. The measured radioactivity was normalized to the protein concentration, and on the assumption that the amino acid uptake activity in the negative control was 100%, the percentage (%) of inhibition of amino acid uptake in the presence of each compound was calculated.
Using the same cell lines as described in Example 2, the compound of Example 1 was examined for the inhibitory effect on leucine or alanine uptake in the human LAT1 stably expressing cell line and the human LAT2 stably expressing cell line in the same manner as in Example 2. FAMT was used as the positive control. The compound of Example 1 or FAMT was added at 100 μM. Cells not treated with either of these compounds were used as a negative control. On the assumption that the amino acid uptake activity in the negative control (control) was 100%, the percentage (%) of inhibition of amino acid uptake in the presence of FAMT or the compound of Example 1 was calculated. In addition, the cancer cell selectivity was calculated as the ratio of the amino acid uptake activity in the human LAT2 stably expressing cell line relative to that in the human LAT1 stably expressing cell line.
In another experiment, the cells were treated with the compound of Example 1 at eight different concentrations (0.1, 1, 3, 10, 30, 100, 300 and 1000 μM), and the concentration causing 50% inhibition of amino acid uptake was calculated as the IC50 value.
A human LAT1 stably expressing cell line and a human LAT2 stably expressing cell line, each of which was the same as described in Example 2, were seeded at 1.2×10^5 cells/well, and after 48 hours, the cells were washed 3 times with an uptake buffer (Na^2+-free Hank's balanced salt solution (HBSS), pH 7.4) prewarmed at 37° C. The test compounds, L-tyrosine or the positive control FAMT (fluoro-α-methyltyrosine) was added at 30 μM, and incubation was performed at 37° C. for 3 minutes. Cells not treated with any of these compounds were used as a negative control. After the incubation, 1 μM of [^14C]L-leucine or [^14C]alanine was added to the wells, [^14C]L-leucine or [^14C]alanine uptake was allowed to proceed for 1 minute, and the cells were washed 3 times with an ice-cold uptake buffer. […]

[2] = test system: tumor derived from human pancreatic carcinoma cell line MIAPaCa-2; assay: Accumulation in subcutaneous tumor of nude mouse, HPLC detection after PITC labeling; assay type: in vivo; details: 100 nmol via tail vein, tumor excised 1 hour after administration, FIG. 3
Procedure: A tumor derived from subcutaneously implanted MIAPaCa-2 cells in a nude mouse was excised, and 0.1 g of the tumor was subcutaneously transplanted into a 6-week-old female nude mouse (BALB/cAJc1-nu). One month after the transplantation, the compound of Example 1 was dissolved in physiological saline at a concentration of 1 mM, and 0.1 mL (100 nmol) of the solution or 0.1 mL of physiological saline was administered from the tail vein. One hour after the administration, the tumor was excised, the amino acids in the tumor tissue were labeled with phenylisothiocyanate (PITC), and the labeled compound was detected by HPLC for evaluation of the accumulation.

T1 sequence (Q01650 whole entry): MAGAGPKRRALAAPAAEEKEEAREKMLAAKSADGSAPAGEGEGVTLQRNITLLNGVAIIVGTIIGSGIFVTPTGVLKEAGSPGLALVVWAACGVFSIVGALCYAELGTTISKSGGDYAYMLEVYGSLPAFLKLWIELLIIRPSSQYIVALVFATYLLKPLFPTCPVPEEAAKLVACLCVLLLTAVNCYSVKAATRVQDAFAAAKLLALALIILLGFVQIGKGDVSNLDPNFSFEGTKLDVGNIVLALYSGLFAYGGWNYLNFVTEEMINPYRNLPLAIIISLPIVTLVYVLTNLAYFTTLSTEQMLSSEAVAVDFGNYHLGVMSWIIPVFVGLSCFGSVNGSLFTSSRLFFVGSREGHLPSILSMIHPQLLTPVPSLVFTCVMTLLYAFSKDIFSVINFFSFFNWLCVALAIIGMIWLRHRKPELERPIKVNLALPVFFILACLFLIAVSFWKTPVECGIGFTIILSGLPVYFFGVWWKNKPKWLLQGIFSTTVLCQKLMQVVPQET
T1 sequence (P08195 102-630 partner): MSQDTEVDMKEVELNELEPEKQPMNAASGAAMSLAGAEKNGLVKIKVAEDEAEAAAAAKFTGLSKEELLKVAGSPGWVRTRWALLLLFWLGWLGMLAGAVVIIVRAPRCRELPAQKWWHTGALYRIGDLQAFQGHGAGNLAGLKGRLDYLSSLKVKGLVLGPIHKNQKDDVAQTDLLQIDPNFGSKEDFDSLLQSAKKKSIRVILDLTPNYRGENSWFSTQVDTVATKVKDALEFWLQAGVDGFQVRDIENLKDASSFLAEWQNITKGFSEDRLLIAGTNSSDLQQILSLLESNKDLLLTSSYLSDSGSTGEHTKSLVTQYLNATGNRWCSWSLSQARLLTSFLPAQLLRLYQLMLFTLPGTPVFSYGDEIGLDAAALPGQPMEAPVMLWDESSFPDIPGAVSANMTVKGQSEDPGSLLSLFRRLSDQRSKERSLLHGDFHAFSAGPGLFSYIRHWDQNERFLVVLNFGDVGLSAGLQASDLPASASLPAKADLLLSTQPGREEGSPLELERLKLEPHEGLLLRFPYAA

## NC(Cc1cc(OCCF)ccc1I)C(=O)O (stereo not shown) [Example 1, 2-amino-3-(5-(2-fluoroethoxy)-2-iodophenyl)propanoic acid]
[1]; HEK293, compound at 100 μM, human LAT1 stably expressing HEK293 cell line, 1 μM [14C]L-leucine or [14C]alanine, 1 min uptake, read-out: Percentage of inhibition of LAT1-mediated amino acid uptake
  inhibition at 100 µM: 92.5%
[1]; eight concentrations 0.1-1000 μM
  IC50: 9.2 µM
[1]; from IC50 values
  Selectivity for LAT1 over LAT2: ≥ 9 times
[2]
  Accumulation in tumor: accumulated intensively in the tumor
